Reference: article PMC12133982, “Predominant T-cell epitopes of SARS-CoV-2 restricted by multiple prevalent HLA-B and HLA-C allotypes in Northeast Asia” (Frontiers in Immunology, 2025)
pIC50: −log10 of the molar value. Peptide text beside a SMILES is read from it.

Legend:
HLA-C0401 = HLA-C0401 (Homo sapiens, UniProt P10321, A176E/A330V/A35S/A73E/C25G/C350S/D138N/D33S/E299K/L171W/L180R/L218V/M285V/M309V/M331V/N104K/P208H/Q277E/Q291P/R243W/R38W/S101N/S123F/S140F/S297R/S48A/T329A/T363A/V319A/V327M); experiment: Competitive peptide binding assay, CIR-C0401; settings: HMy2.CIR-C0401 cells, reference Cy5-[…], class from inhibition at 5 and 15 μM, flow cytometry MFI; read-out: Binding affinity with HLA-C0401
Protocol: (§1) Then, competitive peptide binding assays were performed.

HLA-C0102 = HLA-C0102 (Homo sapiens, UniProt P10321, A176E/A330V/A35S/A97T/C350S/D114A/D33F/L171W/L180R/L218V/M285V/M309V/M331V/P208H/Q277E/Q291P/R121W/R243W/R30K/S123C/S140Y/S297R/T329A/T363A/V272M/V319A); experiment: Competitive peptide binding assay, CIR-C0102; settings: for pIC50: HMy2.CIR-C0102 cells, reference Cy5-[…], class from inhibition at 5 and 15 μM, flow cytometry MFI, read-out: Binding affinity with HLA-C0102
Protocol: as §1

HLA-C1402 = HLA-C1402 (Homo sapiens, UniProt P10321, A176E/A330V/A35S/A97T/C350S/D114A/D33S/L171W/L180R/L218V/M285V/M309V/M331V/P208H/Q277E/Q291P/R121W/R243W/S123F/S297R/S48A/T329A/T363A/V319A); experiment: Competitive peptide binding assay, CIR-C1402; settings: HMy2.CIR-C1402 cells, reference Cy5-[…], class from inhibition at 5 and 15 μM, flow cytometry MFI; read-out: Binding affinity with HLA-C1402
Protocol: as §1

HLA-C0302 = HLA-C0302 (Homo sapiens, UniProt P10321, A176E/A330V/A97T/C25G/C350S/D114A/D33Y/E197K/L127V/L171W/L218V/M285V/M309V/M331V/P208H/Q277E/Q291P/R243W/R45H/S123Y/S297R/S48A/T118I/T187L/T329A/T363A/V319A); experiment: Competitive peptide binding assay, CIR-C0302; settings: HMy2.CIR-C0302 cells, reference Cy5-[…], class from inhibition at 5 and 15 μM, flow cytometry MFI; read-out: Binding affinity with HLA-C0302
Protocol: as §1

HLA-C0602 = HLA-C0602 (Homo sapiens, UniProt P10321, A176E/A330V/C350S/L171W/L180W/L218V/M285V/M309V/M331V/N104K/P208H/Q277E/Q291P/R121W/S101N/S123Y/S297R/T329A/T363A/V319A/V328M); experiment: Competitive peptide binding assay, CIR-C0602
HLA-C0702 = HLA-C0702 (Homo sapiens, UniProt P10321); experiment: Competitive peptide binding assay, CIR-C0702
HLA-B4001 = HLA-B4001 (Homo sapiens, UniProt P01889, A65T/A93T/A95T/D138N/D98Y/E176V/E69K/N87E/Q56L/Q94N/R180L/S121R/S35A/S48T/T167S/V36M/W171L/Y33H/Y91S); experiment: Competitive peptide binding assay, CIR-B4001; settings: HMy2.CIR-B4001 cells, reference Cy5-[…], class from inhibition at 5 and 15 μM, flow cytometry MFI; read-out: Binding affinity with HLA-B4001
Protocol: as §1

HLA-B5801 = HLA-B5801 (Homo sapiens, UniProt P01889, A329T/C349S/D201E/D98Y/E176V/E187L/E204Q/E69T/G107R/I218V/I90N/K202T/L105A/L119I/N104I/N87E/Q89R/Q94S/R106L/R155S/R180L/R86G/S101N/S121R/S35A/S48A/T118I/V127L/V306I/V36M/Y140S/Y91M); experiment: Competitive peptide binding assay, CIR-B5801; settings: HMy2.CIR-B5801 cells, reference Cy5-[…], class from inhibition at 5 and 15 μM, flow cytometry MFI; read-out: Binding affinity with HLA-B5801
Protocol: as §1

HLA-B3501 = HLA-B3501 (Homo sapiens, UniProt P01889, A329T/A93T/A95T/C349S/D201E/D98Y/E176V/E187L/E204Q/E69T/I218V/K202T/L119I/Q94N/R155S/R180L/S121R/S35A/S48A/T118I/V127L/V306I/V36M/Y140S/Y91F); experiment: Competitive peptide binding assay, CIR-B3501; settings: HMy2.CIR-B3501 cells, reference Cy5-[…], class from inhibition at 5 and 15 μM, flow cytometry MFI; read-out: Binding affinity with HLA-B3501
Protocol: as §1

HLA-B1502 = HLA-B1502 (Homo sapiens, UniProt P01889, A329T/A93T/A95T/C349S/D201E/D98Y/E187L/E204Q/E69M/E70A/H137Y/K202T/L119I/Q94N/R155S/R180L/S121R/S35A/S48A/T118I/V306I/V36M/Y140S/Y91S); experiment: Competitive peptide binding assay, CIR-B1502; settings: HMy2.CIR-B1502 cells, reference Cy5-[…], class from inhibition at 5 and 15 μM, flow cytometry MFI; read-out: Binding affinity with HLA-B1502
Protocol: as §1

HLA-B1501 = HLA-B1501 (Homo sapiens, UniProt P01889, A329T/A93T/A95T/C349S/D201E/D98Y/E187L/E204Q/E69M/E70A/K202T/N87E/Q94N/R155S/R180W/S121R/S35A/S48A/V306I/V36M/Y140S/Y91S); experiment: Competitive peptide binding assay, CIR-B1501; settings: HMy2.CIR-B1501 cells, reference Cy5-[…], class from inhibition at 5 and 15 μM, flow cytometry MFI; read-out: Binding affinity with HLA-B1501
Protocol: as §1

HLA-B4601 = HLA-B4601 (Homo sapiens, UniProt P01889, A329T/A93R/C349S/D201E/E100V/E187L/E204Q/E69M/E70A/I90K/K202T/N87E/R155S/R180W/S121R/S35A/S48A/V306I/V36M/Y140S); experiment: Competitive peptide binding assay, CIR-B4601; settings: for pIC50: HMy2.CIR-B4601 cells, reference Cy5-[…], class from inhibition at 5 and 15 μM, flow cytometry MFI, read-out: Binding affinity with HLA-B4601; for inhibition at 5 µM: read-out: Inhibition % of Cy5-reference peptide binding, CIR-B4601, 5μM peptide; for inhibition at 15 µM: read-out: Inhibition % of Cy5-reference peptide binding, CIR-B4601, 15μM peptide
Protocol: as §1

HLA-B1301 = HLA-B1301 (Homo sapiens, UniProt P01889, A65T/A93T/A95T/D138N/D201E/D98Y/E176V/E204Q/E69M/E70A/G107R/K202T/L105A/L119I/N104T/N87E/Q94N/R106L/R155S/R169L/R180L/S101N/S121R/S35A/S48T/T118I/V127L/V36M/Y140L/Y91S); experiment: Competitive peptide binding assay, CIR-B1301; settings: HMy2.CIR-B1301 cells, reference Cy5-[…], class from inhibition at 5 and 15 μM, flow cytometry MFI; read-out: Binding affinity with HLA-B1301
Protocol: as §1

HLA-B1302 = HLA-B1302 (Homo sapiens, UniProt P01889, A65T/A93T/A95T/D138N/D201E/D98Y/E176V/E204Q/E69M/E70A/G107R/K202T/L105A/L119W/N104T/N87E/Q94N/R106L/R155S/R169L/R180L/S101N/S121T/S35A/S48T/V127L/V36M/Y140L/Y91S); experiment: Competitive peptide binding assay, CIR-B1302; settings: HMy2.CIR-B1302 cells, reference Cy5-MMWYWGPSL, class from inhibition at 5 and 15 μM, flow cytometry MFI; read-out: Binding affinity with HLA-B1302
Protocol: as §1

[1] = read-out: Inhibition % of Cy5-reference peptide binding

Row | Structure (SMILES) | pIC50 (HLA-C0102) | pIC50 (HLA-C1402) | pIC50 (HLA-C0602) | pIC50 (HLA-C0702) | pIC50 (HLA-B4001) | pIC50 (HLA-B5801) | pIC50 (HLA-B3501) | pIC50 (HLA-B1501) | pIC50 (HLA-B4601) | pIC50 (HLA-B1301) | other results
1 | CC[C@H](C)[C@H](NC(=O)[C@@H](NC(=O)[C@@H](N)CO)[C@@H](C)CC)C(=O)N[C@@H](C)C(=O)N[C@@H](Cc1ccc(O)cc1)C(=O)N[C@H](C(=O)N[C@@H](CCSC)C(=O)N[C@@H](CO)C(=O)N[C@@H](CC(C)C)C(=O)O)[C@@H](C)O [Epitope M86] (H-SIIAYTMSL-OH; N-terminus and C-terminus assumed) | 4.82 to 5.30 | < 4.82 | – | – | – | – | – | – | – | – | pIC50 (HLA-C0401): 4.82 to 5.30; pIC50 (HLA-C0302): < 4.82
2 | CC[C@H](C)[C@H](NC(=O)[C@@H]1CCCN1C(=O)[C@H](CCSC)NC(=O)[C@H](CC(C)C)NC(=O)[C@H](CC(C)C)NC(=O)[C@H](CO)NC(=O)[C@H](Cc1ccc(O)cc1)NC(=O)[C@@H](N)Cc1ccc(O)cc1)C(=O)N[C@@H](CC(C)C)C(=O)O [Epitope M95] | 4.82 to 5.30 | 4.82 to 5.30 | < 4.82 | < 4.82 | – | – | – | – | – | – | –
3 | CC[C@H](C)[C@H](NC(=O)[C@H](CC(N)=O)NC(=O)[C@H](CC(=O)O)NC(=O)[C@H](CO)NC(=O)[C@H](CO)NC(=O)[C@@H](N)CO)C(=O)N[C@@H](C)C(=O)N[C@@H](CC(C)C)C(=O)N[C@@H](CC(C)C)C(=O)O [Epitope M111] (H-SSSDNIALL-OH; N-terminus and C-terminus assumed) | < 4.82 | < 4.82 | 4.82 to 5.30 | < 4.82 | – | – | – | – | – | – | pIC50 (HLA-C0401): > 5.30; inhibition at 5 µM (HLA-C0102; [1]): 30.9%; inhibition at 15 µM (HLA-C0102; [1]): 47.1%
4 | CC[C@H](C)[C@H](NC(=O)[C@H](C)NC(=O)[C@H](C)NC(=O)[C@H](CC(N)=O)NC(=O)[C@H](CC(N)=O)NC(=O)[C@H](C)NC(=O)[C@@H]1CCCN1C(=O)[C@H](CC(N)=O)NC(=O)[C@H](CCCNC(=N)N)NC(=O)[C@@H](N)[C@@H](C)O)C(=O)O [Epitope M117] (H-TRNPANNAAI-OH; N-terminus and C-terminus assumed) | < 4.82 | < 4.82 | > 5.30 | > 5.30 | – | – | – | – | – | – | inhibition at 5 µM (HLA-C0102; [1]): 21%
5 | C[C@H](NC(=O)CNC(=O)[C@H](C)NC(=O)[C@@H](NC(=O)[C@@H](N)Cc1c[nH]c2ccccc12)[C@@H](C)O)C(=O)N[C@@H](C)C(=O)N[C@@H](C)C(=O)N[C@@H](Cc1ccc(O)cc1)C(=O)N[C@@H](Cc1ccc(O)cc1)C(=O)O [Epitope Y174] (H-WTAGAAAYY-OH; N-terminus and C-terminus assumed) | – | – | – | – | < 4.82 | < 4.82 | < 4.82 | 4.82 to 5.30 | < 4.82 | – | pIC50 (HLA-B1502): > 5.30
6 | CC[C@H](C)[C@H](NC(=O)[C@@H](NC(=O)[C@H](CC(C)C)NC(=O)[C@H](CC(N)=O)NC(=O)[C@H](Cc1c[nH]c2ccccc12)NC(=O)[C@H](CCC(N)=O)NC(=O)[C@H](CCC(=O)O)NC(=O)[C@@H](N)CC(C)C)C(C)C)C(=O)NCC(=O)O [Epitope Y215] (H-LEQWNLVIG-OH; N-terminus and C-terminus assumed) | – | – | – | – | 4.82 to 5.30 | < 4.82 | < 4.82 | – | 4.82 to 5.30 | 4.82 to 5.30 | inhibition at 5 µM (HLA-B4601): 47.2%; inhibition at 15 µM (HLA-B4601): 87.3%
7 | CC[C@H](C)[C@H](NC(=O)[C@@H](NC(=O)CNC(=O)[C@H](CC(N)=O)NC(=O)[C@H](CO)NC(=O)[C@H](CC(=O)O)NC(=O)[C@H](C)N)[C@@H](C)O)C(=O)N[C@H](C(=O)N[C@H](C(=O)O)C(C)C)[C@@H](C)O [Epitope Y216] (H-ADSNGTITV-OH; N-terminus and C-terminus assumed) | – | – | – | – | 4.82 to 5.30 | 4.82 to 5.30 | < 4.82 | – | < 4.82 | < 4.82 | pIC50 (HLA-B1302): < 4.82
8 | CC(C)C[C@H](NC(=O)[C@H](CC(C)C)NC(=O)[C@H](CC(C)C)NC(=O)[C@H](CC(N)=O)NC(=O)[C@H](CO)NC(=O)[C@H](CS)NC(=O)[C@H](CCC(=O)O)NC(=O)[C@@H](N)[C@@H](C)O)C(=O)N[C@@H](CCC(N)=O)C(=O)N[C@@H](Cc1ccc(O)cc1)C(=O)O [Epitope Y231] (H-TECSNLLLQY-OH; N-terminus and C-terminus assumed) | – | – | – | – | < 4.82 | – | – | < 4.82 | > 5.30 | 4.82 to 5.30 | pIC50 (HLA-B1302): < 4.82; pIC50 (HLA-B1502): < 4.82; inhibition at 5 µM (HLA-B4601): 73.8%; inhibition at 15 µM (HLA-B4601): 89.3%
9 | CC[C@H](C)[C@H](NC(=O)[C@H](CC(N)=O)NC(=O)[C@@H](NC(=O)[C@H](CCC(=O)O)NC(=O)[C@@H]1CCCN1C(=O)[C@H](CC(N)=O)NC(=O)[C@H](Cc1ccccc1)NC(=O)[C@H](CO)NC(=O)[C@@H](N)Cc1c[nH]c2ccccc12)[C@@H](C)O)C(=O)O [Epitope Y297] (H-WSFNPETNI-OH; N-terminus and C-terminus assumed) | – | – | – | – | < 4.82 | – | – | > 5.30 | – | < 4.82 | –
